The results in this text go back to patent publication US7939556B2, “Imidazole derivatives and their use for modulating the GABAA receptor complex” (Neurosearch A/S, priority 2005, dated 2011).

This test concerns the target benzodiazepine modulatory unit of the GABAA receptor complex. In words: In vitro inhibition of 3H-flunitrazepam (3H-FNM) binding. To be noted: inhibition of specific binding of 3H-FNM (1 nM), rat cerebral cortex membranes, 40 min at 2° C. The protocol: In Vitro Inhibition of ^3H-Flunitrazepam (^3H—FNM) Binding
The GABA recognition site and the benzodiazepine modulatory unit can selectively be labelled with ^3H-flunitrazepam.
Preparations are performed at 0-4° C. unless otherwise indicated. Cerebral cortex from male Wistar rats (150-200 g) is homogenised for 5-10 sec in 20 ml Tris-HCl (30 mM, pH 7.4) using an Ultra-Turrax homogeniser. The suspension is centrifuged at 27,000×g for 15 min and the pellet is washed three times with buffer (centrifuged at 27,000×g for 10 min). The washed pellet is homogenized in 20 ml of buffer and incubated on a water bath (37° C.) for 30 min to remove endogenous GABA and then centrifuged for 10 min at 27,000×g. The pellet is then homogenized in buffer and centrifuged for 10 min at 27,000×g. The final pellet is resuspended in 30 ml buffer and the preparation is frozen and stored at −20° C.
The membrane preparation is thawed and centrifuged at 2° C. for 10 min at 27,000×g. The pellet is washed twice with 20 ml 50 mM Tris-citrate, pH 7.1 using an Ultra-Turrax homogeniser and centrifuged for 10 min at 27,000×g. The final pellet is resuspended in 50 mM Tris-citrate, pH 7.1 (500 ml buffer per g of original tissue), and then used for binding assays. Aliquots of 0.5 ml tissue are added to 25 μl of test solution and 25 μl of ^3H—FNM (1 nM, final concentration), mixed and incubated for 40 min at 2° C. Non-specific binding is determined using Clonazepam (1 μM, final concentration). After incubation the samples are added 5 ml of ice-cold buffer and poured directly onto Whatman GF/C glass fibre filters under suction and immediately washed with 5 ml ice-cold buffer. The amount of radioactivity on the filters is determined by conventional liquid scintillation counting. Specific binding is total binding minus non-specific binding.
25-75% inhibition of specific binding must be obtained, before calculation of an IC50.
The test value will be given as IC50 (the concentration (μM) of the test substance which inhibits the specific binding of ^3H—FNM by 50%).
Co is specific binding in control assays, and […]
A word on the IC50: it is the concentration needed to halve the response being measured. Low values mean inhibition by little substance, high ones a need for much substance. For `CCOC(=O)c1cn(-c2cccc(COCc3ccccn3)c2)cn1` [Compound 11a, 1-[3-(Pyridin-2-ylmethoxymethyl)-phenyl]-1H-imidazole-4-carboxylic acid ethyl ester], the IC50 is 24 nM. As for `CCOC(=O)c1cn(-c2cccc(Br)c2)cn1` [Compound 16, 1-(3-Bromo-phenyl)-1H-imidazole-4-carboxylic acid ethyl ester], the figure is 24 nM. As for `COC(=O)c1cn(-c2cccc([N+](=O)[O-])c2)cn1` [Compound 20, 1-(3-Nitro-phenyl)-1H-imidazole-4-carboxylic acid methyl ester], the figure is 180 nM.
